This is an account of results in US6413990B1, “Arylsulphonamide-substituted benzimidazoles having tryptase-inhibiting activity” (Boehringer Ingelheim Pharma KG, priority 1999, dated 2002).

Structures are written as SMILES. Where a name gives a salt, the structure may show the parent alone.

For orientation: melting point means the temperature, or range, at which the solid turns liquid. In general, IC50 refers to the concentration at which inhibition is half-maximal.

Series [1] has as its target T1, rh beta tryptase (Homo sapiens, UniProt Q15661).
T1 construct: purchased Promega
Kind of series: tryptase inhibition test (cleavage of N-p-tosyl-Gly-Pro-Lys-para-nitroaniline, p-nitroaniline measured at 405 nm). The series is classed as biochemical. As to conditions: Tris HCl buffer pH 7.4 with calcium and heparin, 37° C., substrate 0.6 mM, 5 minutes pre-incubation, 5 minutes incubation. As for the experimental part:
The compounds according to the invention are characterised by their tryptase-inhibiting activity. This ability to inhibit tryptase was investigated using the test described below.
The measurement is carried out in Tris HCl buffer (100 mM), which additionally contains calcium (5 mM) and heparin ([…]), at pH 7.4. The standard used is rh beta tryptase which may be obtained commercially from Promega, for example. The substrate used is N-p-tosyl-Gly-Pro-Lys-para-nitroaniline in a concentration of 0.6 mM. The substrate is digested with tryptase to form p-nitroaniline which can be measured at 405 nm. Usually, an incubation period of 5 minutes and an incubation temperature of 37° C. are chosen. The enzyme activity used is 0.91 U/ml. The measurements are carried out in an Autoanalyser (Cobas Bio) made by Hofmann LaRoche. The potential inhibitory substances are used in concentrations of 10 μM in the screening, the inhibition of the tryptase being given in percent. The IC50 is determined at over 70% inhibition (concentration at which 50% of the enzyme activity is inhibited). After 5 minutes pre-incubation of the potential inhibitory substances, the substrate is added to start the reaction, the formation of p-nitroaniline being taken as a measurement of the enzyme activity after 5 minutes, after testing the linearity.
The data obtained after carrying out the tests described above (IC50 values) can be found in Table 2.

T1 sequence (Q15661 31-275): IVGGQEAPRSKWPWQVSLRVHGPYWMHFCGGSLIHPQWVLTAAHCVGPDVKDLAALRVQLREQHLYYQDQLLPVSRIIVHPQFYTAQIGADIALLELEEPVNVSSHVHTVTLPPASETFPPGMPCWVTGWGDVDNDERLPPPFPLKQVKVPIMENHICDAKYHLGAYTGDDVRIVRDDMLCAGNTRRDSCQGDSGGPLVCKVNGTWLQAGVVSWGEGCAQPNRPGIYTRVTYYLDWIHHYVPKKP

Compound `CCN(CC)CCN(c1ccc2c(c1)nc(CCc1ccc(C(=N)N)cc1)n2C)S(=O)(=O)c1ccc(C(=O)O)cc1` (as salt: fumarate) [Example 14, N-{2-[2-(4-amidinophenyl)-ethyl]-1-methyl-benzimidazol-5-yl}-N-diethylaminoethyl-[4-carboxy-benzenesulphonamide]-fumarate] returned a melting point of 200 to 204 °C. Same read-out and setting: in the case of `CCN(CC)CCN(c1ccc2c(c1)nc(CCc1ccc(C(=N)N)cc1)n2C)S(=O)(=O)c1ccc(N)cc1` (as salt: hydrochloride) [Example 8, N-{2-[2-(4-amidinophenyl)-ethyl]-1-methyl-benzimidazol-5-yl}-N-diethylaminoethyl-(4-amino-benzenesulphonamide)-tetrahydrochloride] it was 190 to 205 °C; in that of `CCN(CC)CCN(c1ccc2c(c1)nc(CCc1ccc(C(=N)N)cc1)n2C)S(=O)(=O)c1ccc(OC)cc1` (as salt: hydrochloride) [Example 12, N-{2-[2-(4-amidinophenyl)-ethyl]-1-methyl-benzimidazol-5-yl}-N-diethylaminoethyl-(4-methoxy-benzenesulphonamide)-trihydrochloride], 190 to 200 °C.

In the case of `CCOC(=O)c1ccc(S(=O)(=O)N(CCN(CC)CC)c2ccc3c(c2)nc(CCc2ccc(C(=N)N)cc2)n3C)cc1` [Example 1, N-{2-[2-(4-amidinophenyl)-ethyl]-1-methyl-benzimidazol-5-yl}-N-diethylaminoethyl-(4-ethoxycarbonyl-benzenesulphonamide)-hydrochloride], the IC50 in series [1] worked out at 9.7 nM. The same measure, in the same setting: in the case of `CCN(CC)CCN(c1ccc2c(c1)nc(CCc1ccc(C(=N)N)cc1)n2C)S(=O)(=O)c1cccc(Br)c1` [Example 3, N-{2-[2-(4-amidinophenyl)-ethyl]-1-methyl-benzimidazol-5-yl}-N-diethylaminoethyl-(3-bromo-benzenesulphonamide)-hydrochloride] it was 17 nM.

In the case of `CCN(CC)CCN(c1ccc2c(c1)nc(CCc1ccc(C(=N)N)cc1)n2C)S(=O)(=O)c1ccc([N+](=O)[O-])cc1` [Example 4, N-{2-[2-(4-amidinophenyl)-ethyl]-1-methyl-benzimidazol-5-yl}-N-diethylaminoethyl-(4-nitro-benzenesulphonamide)-hydrochloride], the IC50 in series [1] was determined as 23 nM.

Take `CCN(CC)CCN(c1ccc2c(c1)nc(CCc1ccc(C(=N)N)cc1)n2C)S(=O)(=O)c1cccc(OC)c1` [Example 5, N-{2-[2-(4-amidinophenyl)-ethyl]-1-methyl-benzimidazol-5-yl}-N-diethylaminoethyl-(3-methoxy-benzenesulphonamide)-hydrochloride]: in series [1], the concentration for half-maximal inhibition (IC50) is 24 nM. As for `CCN(CC)CCN(c1ccc2c(c1)nc(CCc1ccc(C(=N)N)cc1)n2C)S(=O)(=O)c1cccc(C)c1` [Example 6, N-{2-[2-(4-amidinophenyl)-ethyl]-1-methyl-benzimidazol-5-yl}-N-diethylaminoethyl-(3-methyl-benzenesulphonamide)-hydrochloride], in series [1], the 50% inhibitory concentration (IC50) is 30 nM. Regarding `CCN(CC)CCN(c1ccc2c(c1)nc(CCc1ccc(C(=N)N)cc1)n2C)S(=O)(=O)c1cccc(Cl)c1` [Example 7, N-{2-[2-(4-amidinophenyl)-ethyl]-1-methyl-benzimidazol-5-yl}-N-diethylaminoethyl-(3-chloro-benzenesulphonamide)-hydrochloride], in series [1], the IC50 amounted to 30 nM. As for `CCN(CC)CCN(c1ccc2c(c1)nc(CCc1ccc(C(=N)N)cc1)n2C)S(=O)(=O)c1ccc(N)cc1` [Example 8, N-{2-[2-(4-amidinophenyl)-ethyl]-1-methyl-benzimidazol-5-yl}-N-diethylaminoethyl-(4-amino-benzenesulphonamide)-tetrahydrochloride], the concentration for half-maximal inhibition (IC50) in series [1] was found to be 34 nM.

Take `CCN(CC)CCN(c1ccc2c(c1)nc(CCc1ccc(C(=N)N)cc1)n2C)S(=O)(=O)c1ccc(NC(C)=O)cc1` [Example 9, N-{2-[2-(4-amidinophenyl)-ethyl]-1-methyl-benzimidazol-5-yl}-N-diethylaminoethyl-(4-acetylamino-benzenesulphonamide)]: the half-inhibitory concentration (IC50) in series [1] amounted to 44 nM. With `CCN(CC)CCN(c1ccc2c(c1)nc(CCc1ccc(C(=N)N)cc1)n2C)S(=O)(=O)c1cc(C(F)(F)F)cc(C(F)(F)F)c1` [Example 16, N-{2-[2-(4-amidinophenyl)-ethyl]-1-methyl-benzimidazol-5-yl}-N-2-diethylaminoethyl-[3,5-di-(trifluoromethyl)-benzenesulphonamide] dihydrochloride], the concentration for half-maximal inhibition (IC50) in series [1] turned out to be 25 nM.

For `CCN(CC)CCN(c1ccc2c(c1)nc(CCc1ccc(C(=N)N)cc1)n2C)S(=O)(=O)c1ccc2cc(O)ccc2c1` [Example 17, N-{2-[2-(4-amidinophenyl)-ethyl]-1-methyl-benzimidazol-5-yl}-N-2-diethylaminoethyl-(6-hydroxy-naphth-2-ylsulphonamide) dihydrochloride], the IC50 in series [1] was determined as 280 nM. Consider `CCN(CC)CCN(c1ccc2c(c1)nc(CCc1ccc(C(=N)N)cc1)n2C)S(=O)(=O)c1cccc(C(F)(F)F)c1` [Example 18, N-{2-[2-(4-amidinophenyl)-ethyl]-1-methyl-benzimidazol-5-yl}-N-2-diethylaminoethyl-(3-trifluoromethyl-benzenesulphonamide) dihydrochloride], for which, in series [1], the half-inhibitory concentration (IC50) amounted to 43 nM. Still for that read-out and setting: in the case of `CCN(CC)CCN(c1ccc2c(c1)nc(CCc1ccc(C(=N)N)cc1)n2C)S(=O)(=O)c1cccc(C(C)(C)c2ccccc2)c1` [Example 19, N-{2-[2-(4-amidinophenyl)-ethyl]-1-methyl-benzimidazol-5-yl}-N-2-diethylaminoethyl-[3-(1-methyl-1-phenyl-ethyl)-benzenesulphonamide] dihydrochloride] it was 8.8 nM; in that of `CN(C)c1cccc2c(S(=O)(=O)N(CCN)c3ccc4c(c3)nc(CCc3ccc(C(=N)N)cc3)n4C)cccc12` [Example 20, N-{2-[2-(4-amidinophenyl)-ethyl]-1-methyl-benzimidazol-5-yl}-N-aminoethyl-(dansylamide) dihydrochloride], 22 nM; in that of `CCN(CC)CCN(c1ccc2c(c1)nc(CCc1ccc(C(=N)N)cc1)n2C)S(=O)(=O)c1ccc(C(C)(C)C)cc1` [Example 21, N-{2-[2-(4-amidinophenyl)-ethyl]-1-methyl-benzimidazol-5-yl}-N-diethylaminoethyl-(4-tert-butyl-benzenesulphonamide) dihydrochloride], 4.1 nM. The same measure, in the same setting: in the case of `CN(C)c1cccc2c(S(=O)(=O)N(Cc3ccccn3)c3ccc4c(c3)nc(CCc3ccc(C(=N)N)cc3)n4C)cccc12` [Example 22, N-{2-[2-(4-amidinophenyl)-ethyl]-1-methyl-benzimidazol-5-yl}-N-pyrid-2-ylmethyl-(dansylamide) dihydrochloride] it was 14 nM. Regarding `CN(C)c1cccc2c(S(=O)(=O)N(Cc3cccnc3)c3ccc4c(c3)nc(CCc3ccc(C(=N)N)cc3)n4C)cccc12` [Example 23, N-{2-[2-(4-amidinophenyl)-ethyl]-1-methyl-benzimidazol-5-yl}-N-pyrid-3-ylmethyl-(dansylamide) dihydrochloride], the half-inhibitory concentration (IC50) in series [1] worked out at 13 nM.

Turning to `CCN(CC)CCN(c1ccc2c(c1)nc(CCc1ccc(C(=N)N)cc1)n2C)S(=O)(=O)c1cccc2cccc(Cl)c12` [Example 24, N-{2-[2-(4-amidinophenyl)-ethyl]-1-methyl-benzimidazol-5-yl}-N-diethylaminoethyl-(8-chloronaphth-1-ylsulphonamide) dihydrochloride], the IC50 in series [1] stood at 13 nM. Still for that read-out and setting: in the case of `CN(C)c1cccc2c(S(=O)(=O)N(Cc3ccncc3)c3ccc4c(c3)nc(CCc3ccc(C(=N)N)cc3)n4C)cccc12` [Example 25, N-{2-[2-(4-amidinophenyl)-ethyl]-1-methyl-benzimidazol-5-yl}-N-pyrid-4-ylmethyl-(dansylamide) dihydrochloride] it was 36 nM; in that of `Cn1c(CCc2ccc(C(=N)N)cc2)nc2cc(N(Cc3ccccc3)S(=O)(=O)c3ccc(C(C)(C)C)cc3)ccc21` [Example 26, N-{2-[2-(4-amidinophenyl)-ethyl]-1-methyl-benzimidazol-5-yl}-N-benzyl-(4-tert-butyl-benzenesulphonamide) dihydrochloride], 7.6 nM. On the same count and under the same terms, for `CCN(CC)CCN(c1ccc2c(c1)nc(CCc1ccc(C(=N)N)cc1)n2C)S(=O)(=O)c1ccc2cc(OC)ccc2c1` [Example 27, N-{2-[2-(4-amidinophenyl)-ethyl]-1-methyl-benzimidazol-5-yl}-N-diethylaminoethyl-(6-methoxy-naphth-2-ylsulphonamide) diacetate] the value was 17.3 nM; for `CCN(CC)CCN(c1ccc2c(c1)nc(CCc1ccc(C(=N)N)cc1)n2C)S(=O)(=O)c1cccc([N+](=O)[O-])c1` [Example 28, N-{2-[2-(4-amidinophenyl)-ethyl]-1-methyl-benzimidazol-5-yl}-N-2-diethylaminoethyl-(3-nitro-benzenesulphonamide) dihydrochloride], 44 nM; for `CCN(CC)CCN(c1ccc2c(c1)nc(CCc1ccc(C(=N)N)cc1)n2C)S(=O)(=O)c1cccc(N)c1` [Example 29, N-{2-[2-(4-amidinophenyl)-ethyl]-1-methyl-benzimidazol-5-yl}-N-2-diethylaminoethyl-(3-amino-benzenesulphonamide) dihydrochloride], 52 nM.
